Reference: ChEMBL document CHEMBL1201862, “PubChem BioAssay data set” (2004)
Calls of active or inactive are those of the source.

Assays:
[1] = biological target: T1, Histone-lysine N-methyltransferase NSD2 (Homo sapiens, UniProt O96028); format: biochemical
T1 sequence (O96028 whole entry): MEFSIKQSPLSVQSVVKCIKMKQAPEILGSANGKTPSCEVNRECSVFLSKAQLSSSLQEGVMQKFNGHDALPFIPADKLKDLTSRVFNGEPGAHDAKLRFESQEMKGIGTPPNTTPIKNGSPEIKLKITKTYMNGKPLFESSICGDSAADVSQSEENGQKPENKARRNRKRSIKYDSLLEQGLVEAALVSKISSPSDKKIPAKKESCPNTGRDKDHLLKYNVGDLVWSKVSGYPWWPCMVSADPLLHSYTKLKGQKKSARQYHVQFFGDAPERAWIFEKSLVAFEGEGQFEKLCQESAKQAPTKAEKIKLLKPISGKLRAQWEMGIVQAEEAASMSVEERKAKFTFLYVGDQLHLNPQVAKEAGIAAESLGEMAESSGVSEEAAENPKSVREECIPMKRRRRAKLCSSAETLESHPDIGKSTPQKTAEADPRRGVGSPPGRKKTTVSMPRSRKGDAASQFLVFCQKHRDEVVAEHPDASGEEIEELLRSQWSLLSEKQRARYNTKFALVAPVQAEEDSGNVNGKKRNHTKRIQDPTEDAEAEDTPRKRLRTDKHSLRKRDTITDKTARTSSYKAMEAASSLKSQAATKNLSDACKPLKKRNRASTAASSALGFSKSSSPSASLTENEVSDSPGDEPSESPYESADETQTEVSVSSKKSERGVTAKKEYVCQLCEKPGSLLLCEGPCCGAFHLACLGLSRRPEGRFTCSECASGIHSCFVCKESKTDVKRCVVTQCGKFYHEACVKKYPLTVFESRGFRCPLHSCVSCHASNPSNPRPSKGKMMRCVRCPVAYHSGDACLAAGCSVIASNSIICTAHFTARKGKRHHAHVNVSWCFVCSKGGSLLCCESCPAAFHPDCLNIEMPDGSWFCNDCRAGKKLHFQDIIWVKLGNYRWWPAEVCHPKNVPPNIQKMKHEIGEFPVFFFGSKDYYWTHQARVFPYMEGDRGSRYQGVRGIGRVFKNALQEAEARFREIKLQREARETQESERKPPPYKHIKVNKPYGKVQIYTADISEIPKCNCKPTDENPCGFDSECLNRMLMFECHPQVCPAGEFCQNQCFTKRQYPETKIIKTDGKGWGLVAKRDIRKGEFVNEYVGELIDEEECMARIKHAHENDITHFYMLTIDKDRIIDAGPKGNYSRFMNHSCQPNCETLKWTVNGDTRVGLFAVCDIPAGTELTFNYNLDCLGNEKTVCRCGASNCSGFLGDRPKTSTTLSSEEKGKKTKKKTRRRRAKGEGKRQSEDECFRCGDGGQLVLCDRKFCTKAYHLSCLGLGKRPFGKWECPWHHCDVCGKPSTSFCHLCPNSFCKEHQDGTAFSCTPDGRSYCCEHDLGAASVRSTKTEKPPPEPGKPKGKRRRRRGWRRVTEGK

[2] = biological target: Hepatocyte growth factor receptor (Homo sapiens, UniProt P08581); format: functional;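 note: kinase panel profiling across the kinome, with MET as the panel member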
[3] = biological target: Glycogen synthase kinase-3 alpha (Homo sapiens, UniProt P49840); format: functional;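 note: GSK3A result taken from a broad kinome-wide kinase panel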
Glycogen synthase kinase-3 alpha, sequence (P49840 whole entry): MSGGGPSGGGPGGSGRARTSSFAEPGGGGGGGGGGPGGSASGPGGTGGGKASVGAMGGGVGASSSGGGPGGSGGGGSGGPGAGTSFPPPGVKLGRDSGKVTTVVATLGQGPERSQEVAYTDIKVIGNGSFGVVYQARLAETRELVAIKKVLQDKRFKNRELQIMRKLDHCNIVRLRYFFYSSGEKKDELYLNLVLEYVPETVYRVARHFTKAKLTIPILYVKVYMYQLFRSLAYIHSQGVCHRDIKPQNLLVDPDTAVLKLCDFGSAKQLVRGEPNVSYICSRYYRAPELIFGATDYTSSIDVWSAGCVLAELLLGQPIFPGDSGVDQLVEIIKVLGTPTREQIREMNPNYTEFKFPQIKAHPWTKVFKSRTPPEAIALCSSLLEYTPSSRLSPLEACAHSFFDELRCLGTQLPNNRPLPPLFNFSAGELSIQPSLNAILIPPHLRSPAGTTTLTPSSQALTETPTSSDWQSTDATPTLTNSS

[4] = biological target: Dual specificity protein kinase CLK2 (Homo sapiens, UniProt P49760); format: functional
Dual specificity protein kinase CLK2, sequence (P49760 whole entry): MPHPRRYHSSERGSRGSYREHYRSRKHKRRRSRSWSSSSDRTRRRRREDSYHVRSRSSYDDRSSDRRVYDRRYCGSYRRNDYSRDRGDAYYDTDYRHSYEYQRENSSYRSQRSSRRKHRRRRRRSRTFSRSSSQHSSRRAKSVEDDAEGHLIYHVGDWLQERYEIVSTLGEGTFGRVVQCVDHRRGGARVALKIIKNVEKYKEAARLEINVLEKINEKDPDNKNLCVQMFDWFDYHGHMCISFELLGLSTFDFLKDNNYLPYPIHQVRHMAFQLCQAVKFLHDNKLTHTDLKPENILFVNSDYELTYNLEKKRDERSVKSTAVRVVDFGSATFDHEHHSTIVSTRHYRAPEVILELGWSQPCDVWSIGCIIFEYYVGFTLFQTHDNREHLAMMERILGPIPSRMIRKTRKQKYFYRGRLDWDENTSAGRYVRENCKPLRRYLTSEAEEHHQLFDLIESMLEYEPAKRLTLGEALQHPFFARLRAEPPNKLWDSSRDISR

[5] = biological target: Cyclin-dependent kinase 7 (Homo sapiens, UniProt P50613); format: functional;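 note: value comes from a kinome-wide kinase profiling panel in which CDK7 is one member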
[6] = biological target: Protein kinase C theta type (Homo sapiens, UniProt Q04759); test: Navigating the Kinome. Panel member name: PRKCQ; format: functional
[7] = biological target: Leucine-rich repeat serine/threonine-protein kinase 2 (Homo sapiens, UniProt Q5S007); format: functional;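 note: value from a broad kinome-wide panel profiling study in which LRRK2 was one of the kinases tested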
[8] = biological target: T2, Aurora kinase A (Homo sapiens, UniProt O14965); format: functional;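 note: value from the Navigating the Kinome kinase panel profiling, panel entry STK6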
T2 sequence (O14965 whole entry): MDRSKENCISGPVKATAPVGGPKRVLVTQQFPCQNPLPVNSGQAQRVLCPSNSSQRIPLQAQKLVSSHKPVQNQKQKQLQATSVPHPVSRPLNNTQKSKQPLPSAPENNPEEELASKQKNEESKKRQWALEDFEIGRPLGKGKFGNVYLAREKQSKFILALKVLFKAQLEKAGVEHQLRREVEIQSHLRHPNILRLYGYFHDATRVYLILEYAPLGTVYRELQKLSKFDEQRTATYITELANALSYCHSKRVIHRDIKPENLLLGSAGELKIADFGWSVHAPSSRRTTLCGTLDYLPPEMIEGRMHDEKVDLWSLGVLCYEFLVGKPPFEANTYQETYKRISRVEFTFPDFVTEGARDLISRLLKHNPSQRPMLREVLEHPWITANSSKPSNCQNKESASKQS

[9] = biological target: Proto-oncogene tyrosine-protein kinase receptor Ret (Homo sapiens, UniProt P07949); format: functional;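 note: measured within a kinome-wide profiling panel, RET as the panel member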
[10] = biological target: High affinity nerve growth factor receptor (Homo sapiens, UniProt P04629); format: functional;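 note: NTRK1 tested as one member of a kinome-wide profiling panel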
[11] = biological target: BDNF/NT-3 growth factors receptor (Homo sapiens, UniProt Q16620); format: functional;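 note: NTRK2 measured as one member of a broad kinome-wide kinase profiling panel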
BDNF/NT-3 growth factors receptor, sequence (Q16620 whole entry): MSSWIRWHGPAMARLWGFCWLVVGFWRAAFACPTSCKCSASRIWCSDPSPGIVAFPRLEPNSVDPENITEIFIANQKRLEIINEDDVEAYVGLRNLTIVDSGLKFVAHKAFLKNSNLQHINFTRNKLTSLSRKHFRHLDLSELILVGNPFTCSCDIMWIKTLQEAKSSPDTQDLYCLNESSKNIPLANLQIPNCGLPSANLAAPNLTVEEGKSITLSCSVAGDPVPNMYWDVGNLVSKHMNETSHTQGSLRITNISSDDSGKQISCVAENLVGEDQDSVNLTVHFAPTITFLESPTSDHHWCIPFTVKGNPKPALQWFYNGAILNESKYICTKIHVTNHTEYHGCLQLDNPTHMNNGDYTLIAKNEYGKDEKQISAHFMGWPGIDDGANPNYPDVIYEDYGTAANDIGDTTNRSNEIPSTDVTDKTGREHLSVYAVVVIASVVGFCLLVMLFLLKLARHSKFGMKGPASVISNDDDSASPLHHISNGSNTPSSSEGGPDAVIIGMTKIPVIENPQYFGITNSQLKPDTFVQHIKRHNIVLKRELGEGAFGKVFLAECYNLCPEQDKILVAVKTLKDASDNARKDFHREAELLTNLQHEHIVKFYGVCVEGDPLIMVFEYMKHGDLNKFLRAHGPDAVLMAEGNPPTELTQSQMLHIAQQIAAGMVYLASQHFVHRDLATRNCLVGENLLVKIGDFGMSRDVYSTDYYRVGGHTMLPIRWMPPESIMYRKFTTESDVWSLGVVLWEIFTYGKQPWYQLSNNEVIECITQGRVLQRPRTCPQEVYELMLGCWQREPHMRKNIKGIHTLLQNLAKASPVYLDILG

[12] = biological target: Serine/threonine-protein kinase Nek2 (Homo sapiens, UniProt P51955); format: functional
[13] = biological target: Cyclin-dependent kinase 8 (Homo sapiens, UniProt P49336); test: Navigating the Kinome. Panel member name: CDK8; format: functional
Cyclin-dependent kinase 8, sequence (P49336 whole entry): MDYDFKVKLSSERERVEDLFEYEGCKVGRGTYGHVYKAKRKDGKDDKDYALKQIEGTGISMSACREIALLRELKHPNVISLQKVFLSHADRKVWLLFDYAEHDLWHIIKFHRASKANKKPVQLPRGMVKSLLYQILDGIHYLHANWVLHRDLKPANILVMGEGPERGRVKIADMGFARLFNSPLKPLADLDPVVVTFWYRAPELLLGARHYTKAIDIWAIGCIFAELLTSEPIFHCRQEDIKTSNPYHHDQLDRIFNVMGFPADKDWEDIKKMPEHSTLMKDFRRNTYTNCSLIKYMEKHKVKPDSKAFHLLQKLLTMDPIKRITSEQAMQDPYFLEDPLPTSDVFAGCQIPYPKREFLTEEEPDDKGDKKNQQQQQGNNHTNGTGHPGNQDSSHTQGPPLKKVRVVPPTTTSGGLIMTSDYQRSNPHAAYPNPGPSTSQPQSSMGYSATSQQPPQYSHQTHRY

[14] = biological target: Mitogen-activated protein kinase 9 (Homo sapiens, UniProt P45984); format: functional;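 note: value from a kinome panel profiling assay, MAPK9 panel entry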
Mitogen-activated protein kinase 9, sequence (P45984 whole entry): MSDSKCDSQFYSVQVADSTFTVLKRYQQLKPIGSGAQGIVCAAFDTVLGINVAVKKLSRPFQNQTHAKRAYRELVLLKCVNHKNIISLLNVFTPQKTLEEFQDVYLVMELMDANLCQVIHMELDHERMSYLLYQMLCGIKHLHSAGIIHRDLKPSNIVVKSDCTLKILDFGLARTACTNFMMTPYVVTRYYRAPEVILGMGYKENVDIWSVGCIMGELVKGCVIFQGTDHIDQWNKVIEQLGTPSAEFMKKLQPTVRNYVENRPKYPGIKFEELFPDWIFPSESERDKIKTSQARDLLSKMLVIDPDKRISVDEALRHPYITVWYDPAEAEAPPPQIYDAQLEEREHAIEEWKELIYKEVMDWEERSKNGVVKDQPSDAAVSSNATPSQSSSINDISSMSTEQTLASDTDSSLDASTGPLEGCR

[15] = biological target: Tyrosine-protein kinase JAK2 (Homo sapiens, UniProt O60674); format: functional;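 note: JAK2 tested as one member of a kinase panel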
[16] = biological target: Serine/threonine-protein kinase TAO1 (Homo sapiens, UniProt Q7L7X3); format: functional
Serine/threonine-protein kinase TAO1, sequence (Q7L7X3 whole entry): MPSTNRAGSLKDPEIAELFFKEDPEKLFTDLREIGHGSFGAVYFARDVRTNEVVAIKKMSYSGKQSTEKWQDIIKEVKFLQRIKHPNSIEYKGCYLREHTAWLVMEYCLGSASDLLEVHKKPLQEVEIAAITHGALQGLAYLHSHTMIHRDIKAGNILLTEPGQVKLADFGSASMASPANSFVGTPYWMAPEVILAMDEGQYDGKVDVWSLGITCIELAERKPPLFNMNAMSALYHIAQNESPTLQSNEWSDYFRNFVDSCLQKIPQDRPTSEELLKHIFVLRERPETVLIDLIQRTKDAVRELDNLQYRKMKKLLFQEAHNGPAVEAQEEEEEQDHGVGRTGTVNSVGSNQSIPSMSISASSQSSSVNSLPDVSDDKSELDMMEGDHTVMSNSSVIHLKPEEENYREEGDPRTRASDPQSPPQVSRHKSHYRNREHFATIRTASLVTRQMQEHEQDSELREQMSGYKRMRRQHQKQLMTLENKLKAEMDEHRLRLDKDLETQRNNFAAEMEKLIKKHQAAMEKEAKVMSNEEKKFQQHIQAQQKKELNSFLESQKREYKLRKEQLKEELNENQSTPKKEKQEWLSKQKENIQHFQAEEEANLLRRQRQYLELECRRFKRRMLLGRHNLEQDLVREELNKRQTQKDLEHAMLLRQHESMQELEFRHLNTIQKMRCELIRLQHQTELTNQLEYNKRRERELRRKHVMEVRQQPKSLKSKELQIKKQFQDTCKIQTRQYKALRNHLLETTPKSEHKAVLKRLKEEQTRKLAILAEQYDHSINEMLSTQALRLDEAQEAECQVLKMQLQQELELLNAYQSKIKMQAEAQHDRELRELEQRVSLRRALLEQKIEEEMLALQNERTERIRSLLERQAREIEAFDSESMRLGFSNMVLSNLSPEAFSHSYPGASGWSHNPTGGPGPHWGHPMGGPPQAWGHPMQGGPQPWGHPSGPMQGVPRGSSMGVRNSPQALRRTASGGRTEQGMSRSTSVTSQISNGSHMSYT

[17] = biological target: Cyclin-dependent kinase 9 (Homo sapiens, UniProt P50750); format: functional;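 note: value from the CDK9 entry of a kinome-spanning kinase panel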
[18] = biological target: Rho-associated protein kinase 1 (Homo sapiens, UniProt Q13464); format: functional;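 note: measured within a broad kinome-wide panel profiling many kinases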
[19] = biological target: Dual specificity mitogen-activated protein kinase kinase 1 (Homo sapiens, UniProt Q02750); test: Navigating the Kinome. Panel member name: MAP2K1; format: functional
[20] = biological target: Activated CDC42 kinase 1 (Homo sapiens, UniProt Q07912); test: Navigating the Kinome. Panel member name: ACK1; format: functional
Activated CDC42 kinase 1, sequence (Q07912 whole entry): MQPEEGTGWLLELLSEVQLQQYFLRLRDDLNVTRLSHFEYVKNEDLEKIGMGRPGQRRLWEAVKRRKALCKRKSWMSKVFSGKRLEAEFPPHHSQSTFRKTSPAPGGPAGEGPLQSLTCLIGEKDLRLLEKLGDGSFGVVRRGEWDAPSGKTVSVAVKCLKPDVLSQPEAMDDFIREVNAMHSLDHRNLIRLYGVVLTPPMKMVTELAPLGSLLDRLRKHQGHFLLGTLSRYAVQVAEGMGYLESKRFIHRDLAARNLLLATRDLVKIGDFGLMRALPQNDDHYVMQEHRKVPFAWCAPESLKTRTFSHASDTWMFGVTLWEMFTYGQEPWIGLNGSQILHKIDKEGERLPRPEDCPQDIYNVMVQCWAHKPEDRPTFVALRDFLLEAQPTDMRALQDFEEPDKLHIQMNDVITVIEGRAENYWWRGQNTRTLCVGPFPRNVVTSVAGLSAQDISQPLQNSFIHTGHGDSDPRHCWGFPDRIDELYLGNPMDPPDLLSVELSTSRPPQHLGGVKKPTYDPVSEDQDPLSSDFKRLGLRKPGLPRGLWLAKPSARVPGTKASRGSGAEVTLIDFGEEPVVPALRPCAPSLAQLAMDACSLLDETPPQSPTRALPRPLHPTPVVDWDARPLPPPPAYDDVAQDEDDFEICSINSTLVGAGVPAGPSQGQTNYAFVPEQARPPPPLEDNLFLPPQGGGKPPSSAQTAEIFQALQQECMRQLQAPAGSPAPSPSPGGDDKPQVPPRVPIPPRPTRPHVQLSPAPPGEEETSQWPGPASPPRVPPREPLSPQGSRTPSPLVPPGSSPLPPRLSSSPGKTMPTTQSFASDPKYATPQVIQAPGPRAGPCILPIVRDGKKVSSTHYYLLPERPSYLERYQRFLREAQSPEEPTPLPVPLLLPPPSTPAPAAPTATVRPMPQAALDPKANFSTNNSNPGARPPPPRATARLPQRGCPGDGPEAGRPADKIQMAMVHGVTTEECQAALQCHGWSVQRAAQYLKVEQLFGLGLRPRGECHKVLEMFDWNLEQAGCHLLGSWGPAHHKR

[21] = biological target: Serine/threonine-protein kinase pim-1 (Homo sapiens, UniProt P11309); format: functional
Serine/threonine-protein kinase pim-1, sequence (P11309 whole entry, canonical isoform): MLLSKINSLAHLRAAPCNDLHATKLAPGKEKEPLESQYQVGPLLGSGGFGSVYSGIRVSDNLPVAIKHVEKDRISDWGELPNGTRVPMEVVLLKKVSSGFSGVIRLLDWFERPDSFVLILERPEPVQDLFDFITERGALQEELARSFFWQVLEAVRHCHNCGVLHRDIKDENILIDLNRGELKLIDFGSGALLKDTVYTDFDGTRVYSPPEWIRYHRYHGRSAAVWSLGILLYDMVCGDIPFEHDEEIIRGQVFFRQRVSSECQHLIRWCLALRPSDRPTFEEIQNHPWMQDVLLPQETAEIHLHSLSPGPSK

[22] = biological target: Casein kinase I isoform alpha (Homo sapiens, UniProt P48729); format: functional
[23] = biological target: Tyrosine-protein kinase ABL1 (Homo sapiens, UniProt P00519); format: functional

Compound | AC50 [1] | Ki [2] | Ki [3] | Ki [4] | Ki [5] | Ki [6] | Ki [7] | Ki [8] | Ki [9] | Ki [10] | Ki [11] | Ki [12] | Ki [13] | Ki [14] | Ki [15] | Ki [16] | Ki [17] | Ki [18] | Ki [19] | Ki [20] | other results
O=C1/C(=C\c2cccc(O)c2O)SC(=S)N1Cc1ccccc1 | 1.26 µM (active) |  |  |  |  |  |  |  |  |  |  |  |  |  |  |  |  |  |  |  | 
CC(C)(C)c1cc[n+](C2=C([N-]S(=O)(=O)c3cccs3)C(=O)c3ccccc3C2=O)cc1 | 3.18 µM (active) |  |  |  |  |  |  |  |  |  |  |  |  |  |  |  |  |  |  |  | 
COc1c(-c2nc3ccccc3[nH]2)c(O)cc2oc(C)cc(=O)c12 |  | 0.126 µM (active) | 1 µM (active) | > 3.98 µM (inactive) | 0.501 µM (active) | 0.398 µM (active) | 794 nM (active) | 0.251 µM (active) | 1.26 µM (active) | 398 nM (active) | 3.16 µM (active) | 316 nM (active) | 0.316 µM (active) | 2.51 µM (active) | 2 µM (active) | 3.98 µM (active) | 0.158 µM (active) | 3.16 µM (active) | 0.631 µM (active) | > 3.98 µM (inactive) | Ki [21]: 0.398 µM (active); Ki [22]: 1.58 µM (active); Ki [23]: 0.794 µM (active)
COC(=O)c1c(N)nc2ccccn12 |  | 79.4 µM (active) |  | 63.1 µM (active) | 63.1 µM (active) | > 100 µM (inactive) | 2510 nM (active) | > 63.1 µM (inactive) | 63.1 µM (active) |  |  |  | 20 µM (active) | 31.6 µM (active) | 79.4 µM (active) | 100 µM (active) | 39.8 µM (active) | 39.8 µM (active) | 31.6 µM (active) |  | Ki [22]: 6.31 µM (active); Ki [23]: 100 µM (active)
Cc1ccc(F)c(NC(=O)Nc2ccc(-c3cccc4[nH]nc(N)c34)cc2)c1 [LINIFANIB] |  |  | > 3.98 µM (inactive) |  |  |  |  |  |  | > 3160 nM (inactive) | 0.631 µM (active) | > 3160 nM (inactive) |  |  |  |  |  |  |  | > 3.98 µM (inactive) | Ki [21]: > 6.31 µM (inactive)
